This is an account of results in patent US20020193425A1, “Cancer chemopreventative compounds and compositions and methods of treating cancers” (priority 2001, published 2002).

Read-outs that look alike come from different tables or passages of the source. Some results are limits rather than exact numbers.

In data set [1] the test system is HL-60 (human promyelocytic) cells. Nature of the data set: HL-60 cell differentiation of quassinoids, NBT reduction. Format: cell-based. On the procedure:
(§1) Induction of differentiation was determined by the ability of treated cells to produce superoxide anions (nitroblue tetrazolium (NBT)-reduction), a functional marker of mature macrophages or granulocytes. Proliferation capacity is equivalent to cell growth and was measured by incorporation of [3H]thymidine into DNA over a period of 18 h, and cytotoxic activity was evaluated by the loss of membrane integrity as shown by trypan blue exclusion. […] Although members of the brusatol and glaucarubolone series were active, when comparing members of both series that varied only in the positioning of the epoxymethano bridge, great differences were noted, as shown with yadianzolide C (5) and glaucarubolone (24), and analogues 4 (brusatol series) and 32 (glaucarubolone series).
(§2) HL-60 (human promyelocytic) cells were tested using a 4-day incubation protocol. In brief, cells in log phase (approximately 10^6 cells/mL) were diluted to […] and preincubated overnight (18 h) in 24-well plates to allow cell-growth recovery. Then, samples dissolved in DMSO were added, keeping the final DMSO concentration at 0.1% (v/v). Control cultures were treated with the same concentration of DMSO. After 4 days of incubation, the cells were analyzed to determine the percentage of cells undergoing maturation as determined by NBT reduction. Concomitantly, the effect on viability and proliferation of HL-60 cells was determined. In each experiment, 1α, 25-dihydroxyvitamin D3 (EC50=0.01 μM) and brusatol (EC50=0.07 μM) were used as reference controls. EC50 and IC50 values were calculated using 5-7 test concentrations (in duplicate), and consistent results were obtained, indicating the data reported for the related quassinoids are reliable.
(1) Nitroblue Tetrazolium (NBT) Reduction. Evaluation of NBT reduction was used to assess the ability of sample-treated HL-60 cells to produce superoxide when challenged with 12-O-tetradecanoylphorbol 13-acetate (TPA). A 1:1 v/v) mixture of a cell suspension (10^6 cells) and TPA/NBT solution (2 mg/mL NBT and 1 μg/mL TPA in phosphate buffered solution) was incubated for 1 h at 37° C. Positive cells reduce NBT yielding intracellular black-blue formazan deposits, which were quantified by microscopic examination of >200 cells. Results were expressed as a percentage of positive cells.

Data set [2] has the same test system. Briefly: HL-60 cell proliferation assay of quassinoids, [3H]thymidine incorporation. Format: cell-based. The settings on record: for IC50: 4-day incubation, [3H]thymidine incorporation, read-out: inhibition of proliferation (IC50). On the procedure:
as §1, §2
(3) Cell Proliferation Assay. […] Cells were then collected on glass fiber filters (90×120 mm; Wallac, Turku, Finland) using a TOMTEC Harvester 96®.
For orientation: Uptake of a labelled nucleoside into DNA is a usual measure of proliferation.

The nature of data set [3]: HL-60 cytotoxicity of quassinoids, trypan blue exclusion. Format: cell-based, human. The note with it: human, HL-60 cells; HL-60; 4-day incubation; trypan blue exclusion; read-out: cytotoxicity (IC50). On the procedure:
as §1, §2
(§3) (2) Cytotoxicity. Since loss of membrane integrity is an early feature of necrotic cells and a late feature of apoptotic cells, trypan blue, a […] blue dye, was used to stain cells with compromised plasma membranes, while leaving intact cells unstained. Cells […] of trypan blue (0.2% w/v in PBS), incubated for at least 5 min at room temperature, and counted using a hematocytometer. Viability percentages were calculated with duplicate samples.

The test system of data set [4] is human promyelocytic leukemia (HL-60) cells. The settings on record: cited from earlier work.
For data set [5], the system named is HL-60 (human promyelocytic) cells. Nature of the data set: HL-60 cytotoxicity of quassinoids, trypan blue exclusion. Format: cell-based. The note with it: HL-60; 4-day incubation; trypan blue exclusion. On the procedure: as §1, §2, §3
Data set [6] deals with DMBA-induced preneoplastic lesion formation in mouse mammary organ culture. Nature of the data set: Inhibition of DMBA-induced preneoplastic lesion formation in mouse mammary organ culture (MMOC). Format: cell-based. The note with it: for % inhibition of DMBA-induced preneoplastic lesion formation: quassinoid (2 μM), in comparison with a DMBA control. On the procedure:
The identification of potential inhibitors of DMBA-induced preneoplastic lesion formation in mammary organ culture has been described previously. Briefly, four-week old BALB/c female mice (Charles River) were pretreated for nine days with 1 μg estradiol and 1 mg progesterone. The thoracic pair of mammary glands was dissected on silk and incubated with growth-promoting hormones in the presence of test compounds (2 μM) for 10 days. DMBA ([…]) was included in the medium (containing […]) for 24 hours on the third day of culture to induce preneoplastic mammary lesions. Following 10 days of growth promoting phase, all hormones except insulin were withdrawn and the glands were allowed to regress to lobuloalveolar structures during a 14-day incubation period. Glands then were fixed in 10% buffered formalin and stained with alum carmine. Incidence of lesion formation (percentage of glands per group with mammary lesions) was recorded, and percent inhibition was calculated by comparison with the DMBA control group that was not treated with test sample. Active samples induce 60% inhibition, based on historical controls.

Setting [7] is: HL-60, 4-day incubation, NBT-reduction, read-out: induction of differentiation (EC50).
[8] abbreviates: Homo sapiens, HL-60, 96 h, read-out: induction of differentiation (EC50, μM).

By EC50 is commonly meant the concentration at which the effect is half-maximal. Consider `C=C1/C(=C\C=C2/CCC[C@]3(C)[C@@H]([C@H](C)CCCC(C)(C)O)CC[C@@H]23)C[C@@H](O)C[C@@H]1O` [1α, 25-dihydroxyvitamin D3, reference compound], for which the EC50 in data set [1] (setting [7]) worked out at 0.01 µM.
`CC[C@@](C)(OC(C)=O)C(=O)O[C@H]1C(=O)O[C@@H]2C[C@H]3C(C)=CC(=O)[C@@H](O)[C@]3(C)[C@H]3[C@@H](O)[C@H](O)[C@@]4(C)OC[C@]32[C@@H]14` [compound 3, quassimarin]: the IC50 in data set [2] (Homo sapiens) amounted to 0.06 ± 0.005 µM. Further, the selectivity index in data set [2] (ratio of cytotoxic IC50 over antiproliferative IC50) was 2.2 ± 0.5. In data set [1] (setting [8]), the EC50 is 0.09 ± 0.001 µM. Further, the IC50 at 4 days in data set [3] is 0.13 ± 0.008 µM.
With bruceoside B, the “activity in the HL-60 test system” value in data set [4] was “inactive”.
Turning to `COc1cc([C@H]2Oc3c(OC)cc4ccc(=O)oc4c3O[C@@H]2CO)ccc1O` [cleomiscosin A], the “activity in the HL-60 test system” value in data set [4] is “inactive”.
Take `CC[C@](C)(O)C(=O)O[C@H]1C(=O)O[C@@H]2C[C@H]3C(C)=CC(=O)[C@@H](O)[C@]3(C)[C@H]3[C@@]4(O)OC[C@]32[C@@H]1[C@@H](C)[C@H]4O` [compound 25, glaucarubinone]: the IC50 amounted to 0.5 ± 0.09 µM in data set [2] and 1 ± 0.1 µM in data set [5]. Further, the EC50 in data set [1] (setting [7]) came to 1.8 ± 0.09 µM.
With `CC1=CC(=O)[C@@H](O)[C@]2(C)[C@H]3[C@@]4(O)OC[C@@]35[C@@H](C[C@@H]12)OC(=O)C[C@H]5[C@@H](C)[C@H]4O` [compound 26, chaparrinone], the IC50 in data set [2] was found to be 1.2 ± 0.2 µM; in data set [5], 5 ± 0.3 µM. For the same molecule, the EC50 in data set [1] (setting [7]) was roughly 2.4 µM. Also, the “% inhibition of DMBA-induced preneoplastic lesion formation” value in data set [6] is given as 25%.
Taken in the same sequence, the figures for samaderin B [compound 48] were 0.4 ± 0.05 µM, greater than 2 µM, 1 ± 0.02 µM and 0%.
Take yadanziolide C [compound 5]: the IC50 in data set [2] is 1.5 ± 0.08 µM; in data set [5], greater than 10 µM. The concentration for a half-maximal effect (EC50) in data set [1] (setting [7]) came to 10 ± 1.5 µM.
On to `CC[C@@H](C)C(=O)O[C@H]1C(=O)O[C@@H]2C[C@H]3C(C)=CC(=O)[C@@H](O)[C@]3(C)[C@H]3[C@@H](O)[C@H](O)[C@@]4(C)OC[C@]32[C@@H]14` [compound 4, simalikalactone D], for which the IC50 in data set [2] (Homo sapiens) was greater than 0.2 µM. Besides, in data set [1] (setting [8]), the EC50 is greater than 0.2 µM. In addition, the IC50 at 4 days in data set [3] came to 0.2 ± 0.04 µM.
Consider `CC[C@@](O)(CC(=O)O[C@@H]1C(=O)O[C@@H]2C[C@@H]3C(C)=CC(=O)[C@H](O)[C@]3(C)[C@H]3[C@]4(O)OC[C@]32[C@@H]1[C@@H](C)[C@H]4O)C(C)C` [compound 10, Peninsularinone], for which the values for the IC50 in data set [2] and in data set [5] were 0.009 ± 0.001 µM and 0.013 ± 0.001 µM, respectively. The EC50 in data set [1] (setting [7]) is 0.019 ± 0.0004 µM. The “activity in the MMOC model” value in data set [6] (at concentrations as high as 2 mM) is “inactive”. Further, in data set [6], the “% inhibition of DMBA-induced preneoplastic lesion formation” value is on record as 44%.
As for `CC1=CC(=O)[C@@H](O)[C@]2(C)[C@H]3[C@]4(O)OC[C@]35[C@H]([C@@H](C)[C@H]4O)[C@@H](O)C(=O)O[C@@H]5C[C@@H]12` [compound 24, glaucarubolone], the figures for the IC50 in data set [2] and in data set [5] were 0.4 ± 0.03 µM and 1.3 ± 0.2 µM, respectively. Further, the EC50 in data set [1] (setting [7]) is roughly 1.3 µM.
Take `C[C@@]1(CO)[C@H](O)CC[C@@]2(C)[C@H]1CC[C@H]1C[C@@H]3C[C@@]12CC[C@]3(O)CO` [aphidicolin, reference compound]: the “maturation of HL-60 cells” value in data set [1] (data not shown) is given as “incapable of inducing maturation”.
